In US12583849B2, “KCNT1 inhibitors and methods of use” (Praxis Precision Medicines, Inc., priority 2020, dated 2026):
pIC50: −log10 of the molar value.

biological target: T1, KCNT1 (KNa1.1, Slack) (Homo sapiens, UniProt Q5JUK3); experiment: KCNT1-WT-Basal Patch Clamp Assay; assay type: cell-based; details: tetracycline inducible cell line (HEK-TREX); SyncroPatch 384PE automated patch clamp, perforated patch mode, room temperature, step from -80 mV to 0 mV
T1 construct: expressed in transfected cells; host or cells: HEK-TREX (tetracycline-inducible cell line)
T1 sequence (Q5JUK3 1-1230): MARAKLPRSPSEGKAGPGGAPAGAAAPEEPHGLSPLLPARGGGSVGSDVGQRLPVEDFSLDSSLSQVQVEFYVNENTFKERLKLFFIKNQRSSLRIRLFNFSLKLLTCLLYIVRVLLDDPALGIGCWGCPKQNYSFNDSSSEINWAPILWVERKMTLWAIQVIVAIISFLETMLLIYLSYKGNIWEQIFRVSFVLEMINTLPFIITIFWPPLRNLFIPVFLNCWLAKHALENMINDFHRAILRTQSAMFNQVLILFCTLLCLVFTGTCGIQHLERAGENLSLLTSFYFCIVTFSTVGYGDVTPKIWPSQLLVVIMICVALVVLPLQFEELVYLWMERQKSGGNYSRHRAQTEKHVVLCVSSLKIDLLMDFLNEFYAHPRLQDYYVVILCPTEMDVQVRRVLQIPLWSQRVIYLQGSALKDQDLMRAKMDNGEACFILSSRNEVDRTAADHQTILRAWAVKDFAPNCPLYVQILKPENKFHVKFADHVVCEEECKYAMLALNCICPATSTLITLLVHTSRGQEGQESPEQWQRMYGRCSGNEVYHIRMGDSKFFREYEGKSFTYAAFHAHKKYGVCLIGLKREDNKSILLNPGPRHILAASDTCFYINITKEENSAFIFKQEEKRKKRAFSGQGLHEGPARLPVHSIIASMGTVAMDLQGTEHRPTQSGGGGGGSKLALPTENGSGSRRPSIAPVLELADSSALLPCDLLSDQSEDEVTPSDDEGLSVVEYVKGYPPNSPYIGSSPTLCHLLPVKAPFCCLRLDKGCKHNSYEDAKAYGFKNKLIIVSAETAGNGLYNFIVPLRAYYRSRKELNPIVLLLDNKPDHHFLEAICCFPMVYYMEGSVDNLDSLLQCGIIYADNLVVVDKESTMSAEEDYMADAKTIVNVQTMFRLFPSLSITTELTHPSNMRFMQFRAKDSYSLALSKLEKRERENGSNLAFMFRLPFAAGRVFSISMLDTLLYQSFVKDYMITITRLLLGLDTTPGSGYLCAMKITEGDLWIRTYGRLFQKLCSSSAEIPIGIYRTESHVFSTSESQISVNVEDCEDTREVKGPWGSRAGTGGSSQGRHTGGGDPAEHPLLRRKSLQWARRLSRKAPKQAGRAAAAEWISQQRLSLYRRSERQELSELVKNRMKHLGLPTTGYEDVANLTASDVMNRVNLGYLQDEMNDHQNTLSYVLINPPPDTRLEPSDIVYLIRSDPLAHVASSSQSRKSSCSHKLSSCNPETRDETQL
Experimental: KCNT1-WT-Basal—Patch Clamp Assay
Inhibition of KCNT1 (KNa1.1, Slack) was evaluated using a tetracycline inducible cell line (HEK-TREX). Currents were recorded using the SyncroPatch 384PE automated, patch clamp system. Pulse generation and data collection were performed with PatchController384 V1.3.0 and DataController384 V1.2.1 (Nanion Technologies). The access resistance and apparent membrane capacitance were estimated using built-in protocols. Current were recorded in perforated patch mode (10 μM escin) from a population of cells. The cells were lifted, triturated, and resuspended at 800,000 cells/ml. The cells were allowed to recover in the cell hotel prior to experimentation. Currents were recorded at room temperature. The external solution contained the following (in mM): NaCl 105, NMDG 40, KCl 4, MgCl2 1, CaCl2 5 and HEPES 10 (pH=7.4, Osmolarity ˜300 mOsm). The extracellular solution was used as the wash, reference and compound delivery solution. The internal solution contained the following (in mM): NaCl 70, KF 70, KCl 10, EGTA 5, HEPES 5 and Escin 0.01 (pH=7.2, Osmolarity ˜295 mOsm). Escin is made at a 5 mM stock in water, aliquoted, and stored at −20° C. The compound plate was created at 2× concentrated in the extracellular solution. The compound was diluted to 1:2 when added to the recording well. The amount of DMSO in the extracellular solution was held constant at the level used for the highest tested concentration. A holding potential of −80 mV with a 100 ms step to 0 mV was used. Mean current was measured during the step to 0 mV. […] The average mean current from 3 sweeps was calculated and the % inhibition of each compound was calculated. The % Inhibition as a function of the compound concentration was fit with a Hill equation to derive IC50, slope, min and max parameters. If KCNT1 inhibition was less than 50% at the highest tested concentration or if an IC50 could not be calculated, then a percent inhibition was reported in place of the IC50.
In this table, “A” indicates IC50 of less than or equal to 1 μM; “B” indicates inhibition of between 1 μM to 20 μM; and “C” indicates inhibition of greater than or equal to 20 μM.

Row | SMILES | pIC50
1 | C[C@H](NC(=O)CN(C)C)c1nc(-c2ccnc(C(F)(F)F)c2)no1 [III-1, (S)-2-(dimethylamino)-N-(1-(3-(2-(trifluoromethyl)pyridin-4-yl)-1,2,4-oxadiazol-5-yl)ethyl)acetamide] | ≤ 4.70
2 | C[C@H](NC(=O)[C@@H](C)c1ccccc1)c1nc(-c2ccnc(C(F)(F)F)c2)no1 [Compound I-16, (S)-2-phenyl-N—((S)-1-(3-(2-(trifluoromethyl)pyridin-4-yl)-1,2,4-oxadiazol-5-yl)ethyl)propanamide] | ≥ 6.00
3 | C[C@H](NC(=O)c1ccc(Br)s1)c1nc(-c2ccnc(C3CC3)c2)no1 [Compound I-57, (S)-5-bromo-N-(1-(3-(2-cyclopropylpyridin-4-yl)-1,2,4-oxadiazol-5-yl)ethyl)thiophene-2-carboxamide] | ≥ 6.00
4 | C[C@H](NC(=O)CC(C)(C)C)c1nc(-c2ccnc(C(F)(F)F)c2)no1 [III-3, (S)-3,3-dimethyl-N-(1-(3-(2-(trifluoromethyl)pyridin-4-yl)-1,2,4-oxadiazol-5-yl)ethyl)butanamide] | 4.70 to 6.00
5 | C[C@H](NC(=O)Cc1ccccc1)c1nc(-c2ccnc(C3CC3)c2)no1 [Compound I-42, (S)—N-(1-(3-(2-cyclopropylpyridin-4-yl)-1,2,4-oxadiazol-5-yl)ethyl)-2-phenylacetamide] | ≥ 6.00
6 | C[C@H](NC(=O)C1CCCC12CC2)c1nc(-c2ccnc(C(F)(F)F)c2)no1 (stereo partly drawn) [Compound I-82, N-[(1S)-1-[3-[2-(trifluoromethyl)-4-pyridyl]-1,2,4-oxadiazol-5-yl]ethyl]spiro[2.4]heptane-7-carboxamide] | ≥ 6.00
7 | C[C@H](NC(=O)[C@H](C)c1ccccc1)c1nc(-c2ccnc(C3CC3)c2)no1 [Compound I-58, (R)—N—((S)-1-(3-(2-cyclopropylpyridin-4-yl)-1,2,4-oxadiazol-5-yl)ethyl)-2-phenylpropanamide] | ≥ 6.00
8 | COC1CCC(C(=O)N[C@@H](C)c2nc(-c3ccnc(C(F)(F)F)c3)no2)CC1 (stereo partly drawn) [Compound I-69, (S)-4-methoxy-N-(1-(3-(2-(trifluoromethyl)pyridin-4-yl)-1,2,4-oxadiazol-5-yl)ethyl)cyclohexane-1-carboxamide] | 4.70 to 6.00
9 | C[C@H](NC(=O)c1ccc(C(F)(F)F)cn1)c1nc(-c2ccnc(C(F)(F)F)c2)no1 [Compound I-1, (S)-5-(trifluoromethyl)-N-(1-(3-(2-(trifluoromethyl)pyridin-4-yl)-1,2,4-oxadiazol-5-yl)ethyl)picolinamide] | 4.70 to 6.00
10 | CC(C)Oc1cc(-c2noc([C@H](C)NC(=O)N3CCOc4ccccc43)n2)ccn1 [II-4] | ≥ 6.00
11 | CC1CCC(C(=O)N[C@@H](C)c2nc(-c3ccnc(C(F)(F)F)c3)no2)CC1 (stereo partly drawn) [Compound I-19, (S)-4-methyl-N-(1-(3-(2-(trifluoromethyl)pyridin-4-yl)-1,2,4-oxadiazol-5-yl)ethyl)cyclohexane-1-carboxamide] | ≥ 6.00
12 | C[C@H](NC(=O)C1CCC(O)CC1)c1nc(-c2ccnc(C(F)(F)F)c2)no1 (single isomer, unassigned) [Compound I-78] | ≤ 4.70
13 | CCOc1cc(-c2noc([C@H](C)NC(=O)C3CCCC3)n2)ccn1 [Compound I-45, (S)—N-(1-(3-(2-ethoxypyridin-4-yl)-1,2,4-oxadiazol-5-yl)ethyl)cyclopentanecar-boxamide] | ≥ 6.00
14 | CC(=O)N1CCC(C(=O)N[C@@H](C)c2nc(-c3ccnc(C(F)(F)F)c3)no2)CC1 [Compound I-73, 1-acetyl-N-[(1S)-1-[3-[2-(trifluoromethyl)-4-pyridyl]-1,2,4-oxadiazol-5-yl]ethyl]piperidine-4-carboxamide] | ≤ 4.70
15 | C[C@H](NC(=O)c1cccc(C(=O)N(C)C)c1)c1nc(-c2ccnc(C3CC3)c2)no1 [Compound I-90, (S)—N1-(1-(3-(2-cyclopropylpyridin-4-yl)-1,2,4-oxadiazol-5-yl)ethyl)-N3,N3-dimethylisophthalamide] | 4.70 to 6.00
16 | COc1ccc(C(=O)N[C@@H](C)c2nc(-c3ccnc(C4CC4)c3)no2)cc1 [Compound I-61, (S)—N-(1-(3-(2-cyclopropylpyridin-4-yl)-1,2,4-oxadiazol-5-yl)ethyl)-4-methoxybenzamide] | ≥ 6.00
17 | C[C@H](NC(=O)[C@H]1CCCC(=O)N1)c1nc(-c2ccnc(C(F)(F)F)c2)no1 [Compound I-34, (R)-6-oxo-N—((S)-1-(3-(2-(trifluoromethyl)pyridin-4-yl)-1,2,4-oxadiazol-5-yl)ethyl)piperidine-2-carboxamide] | ≤ 4.70
18 | CCOc1cc(-c2noc([C@H](C)NC(=O)c3ccccc3)n2)ccn1 [Compound I-44, (S)—N-(1-(3-(2-ethoxypyridin-4-yl)-1,2,4-oxadiazol-5-yl)ethyl)benzamide] | ≥ 6.00
19 | C[C@H](NC(=O)c1nccn1C1CCC1)c1nc(-c2ccnc(C3CC3)c2)no1 [Compound I-104, (S)-1-cyclobutyl-N-(1-(3-(2-cyclopropylpyridin-4-yl)-1,2,4-oxadiazol-5-yl)ethyl)-1H-imidazole-2-carboxamide] | 4.70 to 6.00
20 | CC(C)Oc1cc(-c2noc([C@H](C)NC(=O)N(C)C(C)(C)C)n2)ccn1 [II-5] | ≥ 6.00
21 | C[C@H](NC(=O)[C@@H]1CCC(=O)N1)c1nc(-c2ccnc(C(F)(F)F)c2)no1 [Compound I-54, (S)-5-oxo-N—((S)-1-(3-(2-(trifluoromethyl)pyridin-4-yl)-1,2,4-oxadiazol-5-yl)ethyl)pyrrolidine-2-carboxamide] | ≤ 4.70
22 | C[C@H](NC(=O)C12CCC(CC1)CC2)c1nc(-c2ccnc(C(F)(F)F)c2)no1 [Compound I-59, (S)—N-(1-(3-(2-(trifluoromethyl)pyridin-4-yl)-1,2,4-oxadiazol-5-yl)ethyl)bicyclo[2.2.2]octane-1-carboxamide] | ≥ 6.00
23 | C[C@H](NC(=O)c1nc(-c2ccccc2)nn1C)c1nc(-c2cccc(F)c2)no1 [Compound I-38, (S)—N-(1-(3-(3-fluorophenyl)-1,2,4-oxadiazol-5-yl)ethyl)-1-methyl-3-phenyl-1H-1,2,4-triazole-5-carboxamide] | ≤ 4.70
24 | CC(C)Oc1cc(-c2noc([C@H](C)NC(=O)N3CCCc4ccccc43)n2)ccn1 [II-3] | ≥ 6.00
25 | CC(NC(=O)c1cn2c(n1)CCCC2)c1nc(-c2cccc(F)c2)no1 (centres unmarked) [Compound I-52, N-[1-[3-(3-fluorophenyl)-1,2,4-oxadiazol-5-yl]ethyl]-5,6,7,8-tetrahydroimidazo[1,2-a]pyridine-2-carboxamide] | ≤ 4.70
26 | C[C@H](NC(=O)N1CCOc2ccccc21)c1nc(-c2ccnc(C3CC3)c2)no1 [II-6] | ≥ 6.00
